“And” between values parts separate entries of the source, which are not always exact repeats. Equal values may be shown once. Read-outs that look alike come from different tables or passages of the source.
Test: Study 1: plasma HMB after a single dose, sampled to 180 min
Type: in vivo, human
Conditions: for AUC plasma HMB / greater area under the curve (AUC) than CaHMB: 180 min; for Cpeak (peak plasma HMB concentration): single dose 1 g CaHMB or 0.80 g free acid
Description: Human subjects. In study 1, four male and four female college-aged subjects were studied. In study 2, an additional four male and four female college-aged subjects were studied. The protocols for both studies were approved by the Iowa State University IRB and each subject gave informed consent to participate in the study. Due to the nature of the treatments, neither the subjects nor the researchers could be blinded.
Treatments. The same treatments were given to the subjects in both study groups. The three treatments were given in random order to each subject with at least a one week washout period between treatments. The treatments were supplied by Metabolic Technologies, Inc. (MTI, Ames, Iowa) and were prepared with food grade ingredients. One gram of CaHMB or the equivalent HMB in free acid in a gel form was administered to the subjects. The CaHMB capsules were obtained from a commercial supplement manufacturer (Optimum Nutrition, Aurora, Ill.) while the HMB-acid gel was prepared at MTI laboratories. Briefly, the HMB-acid was adjusted to a pH 4.5 with potassium carbonate (K2CO3) and flavors and sweeteners were then added. The 1.0 g CaHMB capsule was taken with 355 mL of water (approx. 12 oz.). The free acid gel dosage was 0.80 g and was equivalent to the free acid contained in the CaHMB in the capsule. The free acid gel treatments were either swallowed (FASW) or held sublingual for 15 seconds and then swallowed (FASL). FASW consisted of expelling the entire dose into the mouth in a 3 ml syringe, swallowing, and then following this with 355 mL of water. FASL subjects were instructed to place the entire dosage under the tongue and hold the dosage for 15 sec before swallowing. They then rinsed and followed the dose with 355 mL of water.
Study 1 design. For study 1 the subjects reported to the laboratory in the morning following an overnight fast. Before ingestion of one of the supplemental treatments, a flexible sterile polyethylene catheter was inserted into a forearm vein using sterile procedures and a pre-ingestion blood sample was drawn. Subsequent blood samples were taken at 0, 2, 5, 10, 15, 25, 35, 45, 60, 90, 120 and 180 min after ingestion of the treatment. Plasma was separated and samples were stored frozen at −70° C. for analysis of HMB concentration. In addition, a portion of the pre-ingestion and 180 minute blood samples were used for measurements (LabCorp, Kansas City, Mo.) of glucose, uric acid, blood urea nitrogen (BUN), creatinine, sodium, potassium, chloride, carbon dioxide, phosphorous, protein, albumin, globulin, albumin:globulin ratio, total bilirubin, direct bilirubin, alkaline phosphatase, lactate dehydrogenase, aspartate aminotransferase (AST), alanine aminotransferase (ALT), gamma-glutamyl transpeptidase (GGT), iron binding capacity (TIBC), unsaturated iron binding capacity (UIBC), iron, iron saturation, total cholesterol, triglycerides, high density lipoprotein (HDL), low density lipoprotein (LDL), and cholesterol ratio. A complete blood count (CBC) was also performed before and after the 180 min treatment period. Subjects also completed a brief questionnaire to report any physical symptoms (such as nausea, headache, etc) they may have experienced during the experiment.
HMB analysis. Plasma and urine HMB were analyzed by gas chromatography/mass spectrometry (GC/MS) as previously described.(27)
Calculations and statistics. Areas under the curves were calculated for each subject using the trapezoidal method that sums the area above baseline.(51) Half-life of plasma HMB was calculated for study 2. The following equations were used: […]
The data were analyzed using a crossover design with Proc GLM in SAS. (45) For the timed sampling of plasma HMB a repeated measures polynomial model was used. The model included subject, order, and treatment main effects and time by treatment interaction where appropriate. […]

[1] = listed as Free Acid Gel Sublingual
[2] = listed as Free Acid Gel Swallow

CC(C)(O)CC(=O)[O-].CC(C)(O)CC(=O)[O-].[Ca+2] [CaHMB, calcium β-hydroxy-β-methylbutryate, reference compound]
time of peak plasma HMB: 122 ± 15.6 min
tpeak (time to reach peak plasma concentration): 121.9 ± 15.6 min
AUC plasma HMB: 13,997 ± 1,534 nmol/180 min
Cpeak (peak plasma HMB concentration): 131 ± 10 nmol/mL and 131.2 ± 10.1 nmol/mL

CC(C)(O)CC(=O)O [HMB-Acid Gel Sublingual, 3-hydroxy-3-methylbutyric acid]
greater area under the curve (AUC) than CaHMB (listed as FASL): 91%
AUC plasma HMB [1]: 26,778 ± 1,980 nmol/180 min
tpeak (time to reach peak plasma concentration) (listed as FASL): 36.3 ± 1.3 min
tpeak (time to reach peak plasma concentration) [1]: 36.3 ± 1.3 min
Cpeak (peak plasma HMB concentration) (listed as FASL): 231 ± 21 nmol/mL
Cpeak (peak plasma HMB concentration) [1]: 231.2 ± 21.0 nmol/mL

CC(C)(O)CC(=O)O [HMB-Acid Gel Swallow, 3-hydroxy-3-methylbutyric acid]
greater area under the curve (AUC) than CaHMB (listed as FASW): 97%
AUC plasma HMB [2]: 27,532 ± 1,742 nmol/180 min
tpeak (time to reach peak plasma concentration) (listed as FASW): 33.1 ± 4.6 min
tpeak (time to reach peak plasma concentration) [2]: 33.1 ± 4.6 min
Cpeak (peak plasma HMB concentration) (listed as FASW): 259 ± 24 nmol/mL
Cpeak (peak plasma HMB concentration) [2]: 259.1 ± 23.9 nmol/mL

— patent publication US20210113501A1, “METHOD OF ADMINISTERING BETA-HYDROXY-BETA-METHYLBUTYRATE (HMB)” (Metabolic Technologies, Inc., priority 2009, published 2021)
